Where “and” joins values, the source holds several entries; their conditions need not be identical. Equal entries are not always repeated.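 How tested: cells in 96-well plates exposed to compound for 48 hours at five concentrations. At the GI50, growth is halved. TGI is the concentration that stops growth completely.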
Tests used:
Assay in all cases: NCI tumour cell line growth inhibition, 48 h
786-0 renal = system: 786-0 renal
HCC-2998 colon = system: HCC-2998 colon
UO-31 renal = system: UO-31 renal
OVCAR-3 ovarian = system: OVCAR-3 ovarian
HS 578T breast = system: HS 578T breast
DU-145 prostate = system: DU-145 prostate
LOX IMVI melanoma = system: LOX IMVI melanoma
M19-MEL melanoma = system: M19-MEL melanoma
SW-620 colon = system: SW-620 colon
KM12 colon = system: KM12 colon
ACHN renal = system: ACHN renal
SF-539 CNS = system: SF-539 CNS
NCI-H23 lung = system: NCI-H23 lung
DMS 273 small cell lung = system: DMS 273 small cell lung
HOP-92 NSCLC = system: HOP-92 NSCLC
P388 leukemia = system: P388 leukemia
TK-10 renal = system: TK-10 renal
IGROV1 ovarian = system: IGROV1 ovarian
EKVX NSCLC = system: EKVX NSCLC
MDA-N = system: MDA-N
UACC-62 melanoma = system: UACC-62 melanoma
SK-MEL-5 melanoma = system: SK-MEL-5 melanoma
HL-60(TB) leukemia = system: HL-60(TB) leukemia
SK-MEL-28 melanoma = system: SK-MEL-28 melanoma
HCT-15 colon = system: HCT-15 colon
SK-MEL-2 melanoma = system: SK-MEL-2 melanoma
XF 498 CNS = system: XF 498 CNS
HCT-116 colon = system: HCT-116 colon
SK-OV-3 ovarian = system: SK-OV-3 ovarian
SR leukemia = system: SR leukemia
NCI-H226 lung = system: NCI-H226 lung
K-562 leukemia = system: K-562 leukemia
OVCAR-8 ovarian = system: OVCAR-8 ovarian
CAKI-1 renal = system: CAKI-1 renal
SF-268 CNS = system: SF-268 CNS
MDA-MB-231 breast = system: MDA-MB-231 breast
MDA-MB-435 = system: MDA-MB-435
U251 CNS = system: U251 CNS
A549 NSCLC = system: A549 NSCLC
M14 melanoma = system: M14 melanoma
BT-549 breast = system: BT-549 breast
MOLT-4 leukemia = system: MOLT-4 leukemia
SN12C renal = system: SN12C renal
UACC-257 melanoma = system: UACC-257 melanoma
T-47D breast = system: T-47D breast
PC-3 prostate = system: PC-3 prostate
KM20L2 colon = system: KM20L2 colon
RPMI-8226 leukemia = system: RPMI-8226 leukemia
NCI/ADR-RES ovarian = system: NCI/ADR-RES ovarian
SNB-19 CNS = system: SNB-19 CNS
RXF 393 renal = system: RXF 393 renal
COLO 205 colon = system: COLO 205 colon
SNB-75 CNS = system: SNB-75 CNS
P388/ADR leukemia = system: P388/ADR leukemia
HOP-18 NSCLC = system: HOP-18 NSCLC

`C/C(=C\COc1ccc2ccc(=O)oc2c1)C1=CC(=O)C(C)(C)O1` was tested, and the TGI (786-0 renal) was 12.9 µM, the GI50 (HCC-2998 colon) was 2.85 µM and the TGI (HCC-2998 colon) was 5.76 µM and 8.34 µM. The GI50 (UO-31 renal) was 3.83 µM, the TGI (UO-31 renal) was 14.7 µM and 14 µM and the GI50 (OVCAR-3 ovarian) was 2.44 µM. For the same compound, the TGI (OVCAR-3 ovarian) was 5.55 µM and 9.43 µM, the TGI (HS 578T breast) was 7.3 µM and the TGI (DU-145 prostate) was 7.34 µM. The GI50 (LOX IMVI melanoma) was 2.2 µM, the TGI (LOX IMVI melanoma) was 9.69 µM and 7.47 µM and the TGI (M19-MEL melanoma) was 14.6 µM. The GI50 (SW-620 colon) was 2.27 µM, the TGI (SW-620 colon) was 5.58 µM and 14.7 µM and the GI50 (KM12 colon) was 2.66 µM and 2.35 µM. For the same compound, the TGI (KM12 colon) was 9.77 µM and 8.59 µM, the TGI (ACHN renal) was 15.9 µM and the TGI (SF-539 CNS) was 4.88 µM and 8.64 µM. For the same compound, the GI50 (NCI-H23 lung) was 2.79 µM, the TGI (NCI-H23 lung) was 12.3 µM and 8.98 µM and the TGI (DMS 273 small cell lung) was 27.9 µM. The GI50 (HOP-92 NSCLC) was 2.38 µM, the TGI (HOP-92 NSCLC) was 7.24 µM and 9.92 µM and the TGI (P388 leukemia) was 8.39 µM. The TGI (TK-10 renal) was 16.7 µM, the GI50 (IGROV1 ovarian) was 2.73 µM and the TGI (IGROV1 ovarian) was 9.02 µM and 22.1 µM. The GI50 (EKVX NSCLC) was 4.9 µM, the TGI (EKVX NSCLC) was 28.2 µM and 30.6 µM and the TGI (MDA-N) was 16 µM. The GI50 (UACC-62 melanoma) was 2.3 µM, the TGI (UACC-62 melanoma) was 6.43 µM and 10.5 µM and the GI50 (SK-MEL-5 melanoma) was 2.72 µM. The TGI (SK-MEL-5 melanoma) was 13.3 µM and 6.95 µM, the GI50 (HL-60(TB) leukemia) was 1.76 µM and the TGI (HL-60(TB) leukemia) was 5.09 µM and 16.9 µM. For the same compound, the GI50 (SK-MEL-28 melanoma) was 4.82 µM, the TGI (SK-MEL-28 melanoma) was 18.3 µM and 10.1 µM and the TGI (HCT-15 colon) was 15.9 µM and 19.4 µM. The GI50 (SK-MEL-2 melanoma) was 4.19 µM, the TGI (SK-MEL-2 melanoma) was 23.2 µM and 15.1 µM and the TGI (XF 498 CNS) was 7.74 µM. For the same compound, the GI50 (HCT-116 colon) was 2.84 µM, the TGI (HCT-116 colon) was 7.57 µM and 6.64 µM and the GI50 (SK-OV-3 ovarian) was 3.06 µM. For the same compound, the TGI (SK-OV-3 ovarian) was 8.72 µM and 34.1 µM, the TGI (SR leukemia) was 4.92 µM and the GI50 (NCI-H226 lung) was 2.64 µM. For the same compound, the TGI (NCI-H226 lung) was 7.24 µM and 10.2 µM, the GI50 (K-562 leukemia) was 1.85 µM and the GI50 (OVCAR-8 ovarian) was 2.18 µM. The GI50 (CAKI-1 renal) was 3.77 µM, the TGI (CAKI-1 renal) was 14.6 µM and 19.8 µM and the GI50 (SF-268 CNS) was 4.74 µM. The TGI (SF-268 CNS) was 14.9 µM and 14.3 µM, the TGI (MDA-MB-231 breast) was 22.9 µM and the TGI (MDA-MB-435) was 13.2 µM. The GI50 (U251 CNS) was 2.7 µM, the TGI (U251 CNS) was 10.1 µM and 8.61 µM and the GI50 (A549 NSCLC) was 4.18 µM. For the same compound, the TGI (A549 NSCLC) was 47.2 µM and 51.9 µM, the TGI (M14 melanoma) was 16.3 µM and the TGI (BT-549 breast) was 19.1 µM. The GI50 (MOLT-4 leukemia) was 3.25 µM, the TGI (MOLT-4 leukemia) was 15 µM and 20.2 µM and the GI50 (SN12C renal) was 3.34 µM. For the same compound, the TGI (SN12C renal) was 14.1 µM and 10.8 µM, the GI50 (UACC-257 melanoma) was 7.22 µM and the TGI (UACC-257 melanoma) was 29.7 µM and 11.3 µM. It also gave a TGI (T-47D breast) of 30.6 µM, a TGI (PC-3 prostate) of 23.3 µM and a TGI (KM20L2 colon) of 8.53 µM. The TGI (RPMI-8226 leukemia) was 6.2 µM and 15.7 µM, the GI50 (NCI/ADR-RES ovarian) was 3.81 µM and the TGI (NCI/ADR-RES ovarian) was > 100 µM and 35.6 µM. The GI50 (SNB-19 CNS) was 2.94 µM, the TGI (SNB-19 CNS) was 8.22 µM and 30.5 µM and the GI50 (RXF 393 renal) was 2.39 µM. The TGI (RXF 393 renal) was 12.2 µM and 5.61 µM, the GI50 (COLO 205 colon) was 2.73 µM and the TGI (COLO 205 colon) was 6.64 µM and 8.96 µM. For the same compound, the GI50 (SNB-75 CNS) was 3.55 µM, the TGI (SNB-75 CNS) was 14.6 µM and 15.4 µM and the TGI (P388/ADR leukemia) was 7.3 µM. For the same compound, the TGI (HOP-18 NSCLC) was 80.5 µM.

Reference: PubChem BioAssay (NCI)
